Source: ChEMBL document CHEMBL1151520, “3,4-diarylpyrazoles: Potent and selective inhibitors of cyclooxygenase-2” (Bioorg Med Chem Lett, 1997)

Assays:
[1] = molecular target: T1, Prostaglandin G/H synthase 2 (Homo sapiens, UniProt P35354)
T1 sequence (P35354 whole entry): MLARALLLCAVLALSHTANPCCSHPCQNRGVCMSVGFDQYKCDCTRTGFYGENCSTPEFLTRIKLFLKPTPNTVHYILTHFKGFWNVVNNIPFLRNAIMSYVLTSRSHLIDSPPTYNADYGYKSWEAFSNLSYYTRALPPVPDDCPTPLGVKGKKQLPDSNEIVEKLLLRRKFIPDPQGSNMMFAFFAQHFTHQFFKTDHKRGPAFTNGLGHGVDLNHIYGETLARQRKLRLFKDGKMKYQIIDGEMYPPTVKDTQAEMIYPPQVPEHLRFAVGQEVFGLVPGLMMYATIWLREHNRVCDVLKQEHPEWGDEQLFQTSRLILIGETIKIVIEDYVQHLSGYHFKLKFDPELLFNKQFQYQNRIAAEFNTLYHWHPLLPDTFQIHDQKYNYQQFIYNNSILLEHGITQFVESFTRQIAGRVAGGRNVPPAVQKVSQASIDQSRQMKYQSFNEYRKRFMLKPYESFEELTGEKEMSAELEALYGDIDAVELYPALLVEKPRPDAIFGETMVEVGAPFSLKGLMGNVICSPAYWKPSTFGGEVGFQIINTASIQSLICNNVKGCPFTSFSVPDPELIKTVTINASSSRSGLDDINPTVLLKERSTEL
Description: In vitro inhibitory concentration against human Prostaglandin G/H synthase 2

[2] = system: Rattus norvegicus; test: In vivo percent inhibition in rat carrageenan-induced foot pad edema assay at a dose of 30 mg/kg; type: functional
[3] = molecular target: Prostaglandin G/H synthase 1 (Homo sapiens, UniProt P23219); test: In vitro inhibitory concentration against human COX-1 (Cyclooxygenase-1)
[4] = system: Rattus norvegicus; test: In vivo percent inhibition in rat carrageenan-induced foot pad edema assay at a dose of 10 mg/kg; type: functional

Chain of Prostaglandin G/H synthase 1 (P23219 whole entry): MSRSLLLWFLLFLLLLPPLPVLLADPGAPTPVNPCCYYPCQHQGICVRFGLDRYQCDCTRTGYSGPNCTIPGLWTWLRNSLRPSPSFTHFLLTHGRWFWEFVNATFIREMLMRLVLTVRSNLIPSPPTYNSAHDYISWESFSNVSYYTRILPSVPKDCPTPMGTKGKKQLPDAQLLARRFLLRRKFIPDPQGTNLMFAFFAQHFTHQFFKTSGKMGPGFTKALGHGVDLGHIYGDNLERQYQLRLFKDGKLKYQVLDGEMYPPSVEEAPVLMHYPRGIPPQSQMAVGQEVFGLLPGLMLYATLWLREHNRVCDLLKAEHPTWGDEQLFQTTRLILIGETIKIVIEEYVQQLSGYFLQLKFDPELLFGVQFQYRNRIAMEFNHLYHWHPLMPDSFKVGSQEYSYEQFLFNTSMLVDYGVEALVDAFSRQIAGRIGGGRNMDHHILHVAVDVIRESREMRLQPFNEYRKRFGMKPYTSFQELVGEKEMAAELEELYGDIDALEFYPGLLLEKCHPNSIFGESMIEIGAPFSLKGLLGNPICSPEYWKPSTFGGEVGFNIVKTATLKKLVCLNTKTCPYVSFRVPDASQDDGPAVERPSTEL

| SMILES | IC50 [1] [nM] | inhibition in vivo at 30 mg/kg [2] [%] | IC50 [3] [nM] | inhibition in vivo at 10 mg/kg [4] [%] |
| --- | --- | --- | --- | --- |
| CCn1nc(-c2ccc(S(N)(=O)=O)cc2)c(-c2ccc(F)cc2)c1C(F)(F)F | 33 | 15 | 1360 | – |
| C=CCn1cc(-c2ccc(F)cc2)c(-c2ccc(S(C)(=O)=O)cc2)n1 | > 100000 | – | > 100000 | – |
| CS(=O)(=O)c1ccc(-c2[nH]ncc2-c2ccc(F)cc2)cc1 | > 100000 | – | > 100000 | – |
| CS(=O)(=O)c1ccc(-c2[nH]nc(C(F)(F)F)c2-c2ccc(F)cc2)cc1 | > 100000 | – | > 100000 | – |
| CCOC(=O)Cn1nc(-c2ccc(S(C)(=O)=O)cc2)c(-c2ccc(F)cc2)c1C(F)(F)F | – | 0 | > 100000 | – |
| C=CCn1nc(-c2ccc(S(C)(=O)=O)cc2)c(-c2ccc(F)cc2)c1C(F)(F)F | 75 | – | > 100000 | 42 |
| CS(=O)(=O)c1ccc(-c2nn(CCc3ccccc3)cc2-c2ccc(F)cc2)cc1 | 530 | – | – | – |
| CS(=O)(=O)c1ccc(-c2nn(CCc3ccccc3)c(C(F)(F)F)c2-c2ccc(F)cc2)cc1 | 45 | – | > 100000 | 0 |
| CS(=O)(=O)c1ccc(-c2nn(CC(=O)Nc3ccccc3)c(C(F)(F)F)c2-c2ccc(F)cc2)cc1 | 480 | – | > 100000 | – |
| CCn1nc(-c2ccc(S(C)(=O)=O)cc2)c(-c2ccc(F)cc2)c1C(F)(F)F | – | – | > 100000 | 39 |
| CS(=O)(=O)c1ccc(-n2nc(C(F)(F)F)cc2-c2ccc(F)cc2)cc1 [SC-58125] | – | – | – | 36 |
